For the test, the target named is T1, Human Kv1.5 channels (Homo sapiens, UniProt P22460).
T1 construct: expressed in transfected cells; host or cells: Xenopus laevis oocytes injected with RNA synthesized in vitro
Put plainly: Activity on the Kv1.5 channel: two-microelectrode voltage clamp on Xenopus oocytes expressing Kv1.5. To be noted: human Kv1.5 expressed in Xenopus oocytes, room temperature, Hill equation; read-out: Kv1.5 IC-50. It is filed as cell-based. The procedure: Determination of the Activity on the Kv1.5 Channel
Human Kv1.5 channels were expressed in xenopus oocytes. For this purpose, firstly oocytes were isolated from Xenopus laevis and defolliculated. Kv1.5-encoding RNA synthesized in vitro was then injected into these oocytes. After Kv1.5 protein expression for 1-7 days, Kv1.5 currents were measured on the oocytes using the two-microelectrode voltage clamp technique. The Kv1.5 channels were in this case usually activated with voltage jumps lasting 500 ms to 0 mV and 40 mV. A solution of the following composition flowed through the bath: NaCl 96 mM, KCl 2 mM, CaCl2 1.8 mM, MgCl2 1 mM, HEPES 5 mM (titrated to pH 7.4 with NaOH). These experiments were carried out at room temperature. The following were employed for data acquisition and analysis: Geneclamp amplifier (Axon Instruments, Foster City, USA) and MacLab D/A converter and software (ADInstruments, Castle Hill, Australia). The substances of the invention were tested by adding them in various concentrations to the bath solution. The effects of the substances were calculated as percent inhibition of the Kv1.5 control current which was obtained when no substance was added to the solution. The data were then extrapolated using the Hill equation in order to determine the inhibitory concentrations IC50 for the respective substances.

T1 sequence (P22460 whole entry): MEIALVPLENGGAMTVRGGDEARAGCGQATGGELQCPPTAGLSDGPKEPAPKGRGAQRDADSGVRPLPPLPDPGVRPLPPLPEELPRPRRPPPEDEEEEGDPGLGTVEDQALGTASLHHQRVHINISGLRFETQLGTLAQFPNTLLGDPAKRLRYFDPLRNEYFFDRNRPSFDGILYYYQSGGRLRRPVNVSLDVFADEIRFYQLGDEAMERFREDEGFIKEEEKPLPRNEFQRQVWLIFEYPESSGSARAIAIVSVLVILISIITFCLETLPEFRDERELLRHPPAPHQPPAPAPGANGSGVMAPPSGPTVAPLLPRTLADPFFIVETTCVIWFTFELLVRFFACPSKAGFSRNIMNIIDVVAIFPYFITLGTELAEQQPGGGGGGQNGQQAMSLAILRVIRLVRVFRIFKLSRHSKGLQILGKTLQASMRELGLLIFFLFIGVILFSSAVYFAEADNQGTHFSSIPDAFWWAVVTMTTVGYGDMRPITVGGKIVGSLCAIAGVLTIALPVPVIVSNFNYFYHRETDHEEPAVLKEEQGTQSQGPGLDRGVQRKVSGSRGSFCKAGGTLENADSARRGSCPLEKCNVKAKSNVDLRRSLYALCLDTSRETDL

With `O=C1CCCN1[C@@H](c1ccc(F)cc1)[C@H](OCC1CC1)C1CCCCC1` (racemic) [Example 83], the IC50 was 1800 nM. As to `N#Cc1ccc(O[C@H](c2ccc(F)c(F)c2)[C@H](c2cccnc2)N2CCCC2=O)cc1` (racemic) [Example 115], the IC50 is roughly 10000 nM.

Take `N#Cc1ccc(O[C@H](c2ccc(F)c(F)c2)[C@H](c2ccc(F)cc2)N2CCCS2(=O)=O)cc1` (racemic) [Example 112]: the IC50 is roughly 10000 nM. Then `O=C1CCCN1[C@@H](c1ccc(F)cc1)[C@@H](OCC1CC1)c1ccnc2ccccc12` (racemic) [Example 84], with 2400 nM; and `O=C1CCCN1[C@@H](c1cccnc1)[C@H](OCC1CC1)c1ccc(F)cc1` (racemic) [Example 16], with 800 nM; and `O=C1CCCN1[C@@H](c1ccc(F)cc1)[C@@H](OCC1CC1)c1cccc2cccnc12` (racemic) [Example 75], with 1400 nM. Then `N#Cc1ccc(O[C@H](c2cc(F)cc(F)c2)[C@H](c2ccc(F)cc2)N2CCCC2=O)cc1` (racemic) [Example 106], with 8300 nM; and `O=C1CCCN1[C@@H](c1ccc(F)cc1)[C@H](OCc1ccc(Cl)cc1)c1ccc(F)c(F)c1` (racemic) [Example 101], with 5600 nM.

For the compound `CCCO[C@H](c1ccccc1)[C@H](c1ccccc1)N1CCCC1=O` [Example 15], the IC50 worked out at 160 nM.

Turning to `Cc1ccc([C@H]([C@H](OCC2CC2)c2ccc(F)cc2)N2CCCC2=O)s1` (racemic) [Example 17], the IC50 worked out at 300 nM.

`O=C1CCCN1[C@@H](c1ccccc1)[C@H](OCCCC(F)(F)F)c1ccc(Cl)cc1` (racemic) [Example 22]: the IC50 was determined as 500 nM. Regarding `O=C1CCCN1[C@@H](c1ccccc1)[C@@H](OCc1ccccc1)c1ccc(F)cc1` (racemic) [Example 53], the IC50 amounted to 1800 nM. The value for `C[C@](c1ccccc1)([C@H](OCC1CC1)c1ccccc1)N1CCCC1=O` (racemic) [Example 29] was 900 nM; that for `O=C1CCCN1[C@H](c1ccc(F)cc1)[C@@H](OCC1CC1)c1cccc2cccnc12` (racemic) [Example 39] was 1100 nM; that for `CCCO[C@@H](c1ccc(Cl)cc1)[C@@H](c1ccccc1)N1CCCC1=O` (racemic) [Example 6, (1R′,2S′)-1-[2-(4-Chlorophenyl)-1-phenyl-2-propoxyethyl]pyrrolidin-2-one] was 920 nM. Consider `CCCCO[C@H](c1ccc(Cl)cc1)[C@H](c1ccccc1)N1CCCC1=O` (racemic) [Example 56], for which the IC50 was found to be 800 nM. Turning to `O=C1CCCN1[C@H](c1ccccn1)[C@H](OCC1CC1)c1ccccc1` (racemic) [Example 63], the IC50 was 1700 nM.

Turning to `O=C1CCCCN1[C@@H](c1ccc(F)cc1)[C@H](OCCCC(F)(F)F)c1cccnc1` (racemic) [Example 118], the IC50 worked out at 800 nM. The value for `O=C1CCCN1[C@@H](c1ccc(F)cc1)[C@H](OCC1CC1)c1ccc(C(F)(F)F)cc1` (racemic) [Example 80] was 1400 nM; that for `O=C1CCCN1[C@@H](c1ccc(F)cc1)[C@H](OCC1CC1)c1ccc(OC(F)(F)F)cc1` (racemic) [Example 50] was 900 nM. As for `C#CCO[C@H](c1ccc(F)c(F)c1)[C@H](c1ccc(F)cc1)N1C(=O)CCC1C` (mixture of isomers) [Example 26], the IC50 was 1000 nM. Then `O=C1CCCCN1[C@@H](c1ccc(F)cc1)[C@H](OCC1CC1)c1ccc(F)c(F)c1` (racemic) [Example 14], with 330 nM; and `N#Cc1ccc(O[C@H](c2ccc(F)c(F)c2)[C@H](c2ccc(F)cc2)N2CCCCC2=O)cc1` (racemic) [Example 107], with 9600 nM; and `COCCO[C@H](c1ccc(Cl)cc1)[C@H](c1ccccc1)N1CCCC1=O` (racemic) [Example 47], with 1000 nM. The value for `N#Cc1ccc(O[C@H](c2ccc(Cl)cc2)[C@H](c2ccccc2)N2CCCC2=O)cc1` (racemic) [Example 45] was 1000 nM. As to `O=C1CCCN1[C@@H](c1ccc(F)cc1)[C@H](OCCCC(F)(F)F)c1cccnc1` (racemic) [Example 2, 1-[(1R′,2S′)-1-(4-Fluorophenyl)-2-pyridin-3-yl-2-(4,4,4-trifluorobutoxy)-ethyl]pyrrolidin-2-one], the IC50 was 6000 nM.

In the case of `O=C1CCCN1[C@@H](c1ccccc1)[C@H](OCc1cccc(Cl)c1)c1ccc(Cl)cc1` (racemic) [Example 40], the IC50 amounted to 800 nM. Then `C=CO[C@H](c1ccc(F)c(F)c1)[C@H](c1ccc(F)cc1)N1CCCC1=O` [Example 121], with 900 nM; and `O=C1CCCCN1[C@@H](c1ccc(F)cc1)[C@H](OCC1CC1)c1cccc2cccnc12` (racemic) [Example 93], with 4100 nM. The value for `O=C1CCCN1C(c1ccc(F)cc1)C(OCCCC(F)(F)F)c1cccc2cccnc12` (stereo not drawn) [Example 111] was 8800 nM. With `O=C1CCCN1[C@@H](c1cccnc1)[C@H](OCCCC(F)(F)F)c1ccc(F)cc1` (racemic) [Example 65], the IC50 was 1500 nM.

As for `O=C1CCCCN1[C@H](c1ccccc1)[C@@H](OCC1CC1)c1ccccc1` [Example 74], the IC50 was 1400 nM.

As to `CC1CCC(=O)N1[C@@H](c1ccc(F)cc1)[C@H](OCC1CC1)c1ccc(F)c(F)c1` (mixture of isomers) [Example 35], the IC50 turned out to be 500 nM. Then `CCCO[C@H](c1ccccc1)[C@@H](c1ccccn1)N1CCCC1=O` (racemic) [Example 64], with 1830 nM; and `CC1CCC(=O)N1[C@@H](c1ccc(F)cc1)[C@H](Oc1ccc(C#N)cc1)c1ccc(F)c(F)c1` (mixture of isomers) [Example 90], with 4100 nM. Then `CCCO[C@H](c1ccc(F)cc1)[C@@H](c1ccc(F)cc1)N1CCCC1=O` (racemic) [Example 33], with 900 nM; and `N#Cc1ccc(O[C@H](c2ccc(OC(F)(F)F)cc2)[C@H](c2ccc(F)cc2)N2CCCC2=O)cc1` (racemic) [Example 108], with 9000 nM. The value for `CCCO[C@H](c1ccc(Cl)cc1)[C@H](c1ccccc1)N1CCCCC1=O` (racemic) [Example 13] was 210 nM; that for `O=C1CCCCN1[C@@H](c1ccc(F)cc1)[C@@H](OCC1CC1)c1cccc2cccnc12` (racemic) [Example 1, 1-[(1R′,2S′)-2-Cyclopropylmethoxy-1-(4-fluorophenyl)-2-quinolin-8-ylethyl]-piperidin-2-one] was 1400 nM; that for `CO[C@H](c1ccc(F)cc1)[C@H](c1ccc(F)cc1)N1CCCC1=O` (racemic) [Example 79] was 3400 nM.

Regarding `N#Cc1ccc([C@@H](OCC2CC2)[C@H](c2ccc(F)cc2)N2CCCC2=O)cc1` (racemic) [Example 41], the IC50 came to 1000 nM. The value for `CC(OCC1CC1)(c1ccccc1)C(c1ccccc1)N1CCCC1=O` (stereo not drawn) [Example 8, 1-(2-Cyclopropylmethoxy-1,2-diphenylpropyl)pyrrolidin-2-one] was 1200 nM. Turning to `CO[C@@H](c1ccccc1)[C@H](c1ccccc1)N1CCCC1=O` (racemic) [Example 82], the IC50 is 3700 nM. With `CCCO[C@H](c1ccccc1)[C@@H](c1ccccc1)N1CCCC1=O` (racemic) [Example 19], the IC50 is 300 nM.

Take `O=C1CCCN1[C@@H](c1ccc(F)cc1)[C@H](OCC1CC1)c1ccc(F)c(F)c1` (racemic) [Example 42]: the IC50 was determined as 600 nM.

(Values after patent publication US7825264B2, “Substituted heterocycles, their use as medicament, and pharmaceutical preparations comprising them” (sanofi-aventis, priority 2005, dated 2010).)
